We go through 29 compounds from US11446287B2, “Compounds and methods for EP300 or CBP modulation and indications therefor” (Opna Immuno-Oncology SA, priority 2019, dated 2022).

SMILES strings stand for the structures.

The target in the assay is T1, Recombinant human EP300 containing the bromodomain (EP300-BD (1040-1161)) (Homo sapiens, UniProt Q09472).
T1 construct: Recombinant human EP300 bromodomain (EP300-BD (1040-1161)); made in house; host or cells: E. coli BL21-CodonPlus (DE3), modified pET vector
T1 sequence (Q09472 1040-1161): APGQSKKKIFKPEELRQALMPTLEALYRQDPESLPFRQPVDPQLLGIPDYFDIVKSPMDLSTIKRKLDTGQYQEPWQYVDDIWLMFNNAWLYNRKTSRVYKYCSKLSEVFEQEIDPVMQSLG
Briefly: EP300 Alphascreen binding assay. The method in brief:
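Displacement of a biotinylated acetyl-K56 histone H3 peptide from the N-His bromodomain construct (1040-1161) measured by AlphaScreen proximity, beads at 7.5 μg/ml final, read 60 min after addition. Protein, peptide and compound first incubated 1 h at room temperature, pH 7.5 HEPES buffer; IC50 by four-parameter logistic fit.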

By IC50 is commonly meant the midpoint of a concentration-inhibition curve. With `Cc1noc(C)c1-c1cnc2c(c1)c(-c1ccc(C(=O)O)cc1OC(F)(F)F)cn2-c1ccc(=O)n(C)c1` [P-0399, 4-(5-(3,5-dimethylisoxazol-4-yl)-1-(1-methyl-6-oxo-1,6-dihydropyridin-3-yl)-1H-pyrrolo[2,3-b]pyridin-3-yl)-3-(trifluoromethoxy)benzoic acid], the IC50 lay in the range of 0.1 to 1000 nM.
The same measure for `CCc1noc(C)c1-c1cnc2c(c1)c(-c1ccc(C(=O)O)cc1OC(F)(F)F)cn2C1CCOCC1` [P-0400, 4-(5-(3-ethyl-5-methylisoxazol-4-yl)-1-(tetrahydro-2H-pyran-4-yl)-1H-pyrrolo[2,3-b]pyridin-3-yl)-3-(trifluoromethoxy)benzoic acid]: 0.1 to 1000 nM.
The same measure for `CCc1onc(C)c1-c1cnc2c(c1)c(-c1ccc(C(=O)O)cc1OC(F)(F)F)cn2C1CCOCC1` [P-0401, 4-(5-(5-ethyl-3-methylisoxazol-4-yl)-1-(tetrahydro-2H-pyran-4-yl)-1H-pyrrolo[2,3-b]pyridin-3-yl)-3-(trifluoromethoxy)benzoic acid]: 0.1 to 1000 nM; for `Cc1cc(C(=O)O)cc(OC(C)C)c1-c1cn(C2CCOCC2)c2ncc(-c3c(C)noc3C)cc12` [P-0402, 4-(5-(3,5-dimethylisoxazol-4-yl)-1-(tetrahydro-2H-pyran-4-yl)-1H-pyrrolo[2,3-b]pyridin-3-yl)-3-isopropoxy-5-methylbenzoic acid]: 0.1 to 1000 nM.
Consider `Cc1noc(C)c1-c1cnc2c(c1)c(-c1ccc(C(=O)O)cc1OC(C)C)cn2C1(C)CCOCC1` [P-0403, 4-(5-(3,5-dimethylisoxazol-4-yl)-1-(4-methyltetrahydro-2H-pyran-4-yl)-1H-pyrrolo[2,3-b]pyridin-3-yl)-3-isopropoxybenzoic acid], for which the IC50 was in the range of 0.1 to 1000 nM.
The same measure for `Cc1noc(C)c1-c1cnc2c(c1)c(-c1c(Cl)cc(C(=O)O)cc1OC(C)C)cn2C1(C)CCOCC1` [P-0404, 3-chloro-4-(5-(3,5-dimethylisoxazol-4-yl)-1-(4-methyltetrahydro-2H-pyran-4-yl)-1H-pyrrolo[2,3-b]pyridin-3-yl)-5-isopropoxybenzoic acid]: 0.1 to 1000 nM.
For `CCOc1nc(C(=O)O)ccc1-c1cn(C2(C)CCOCC2)c2ncc(-c3c(C)noc3C)cc12` [P-0405, 5-(5-(3,5-dimethylisoxazol-4-yl)-1-(4-methyltetrahydro-2H-pyran-4-yl)-1H-pyrrolo[2,3-b]pyridin-3-yl)-6-ethoxypicolinic acid], the IC50 lay in the range of 0.1 to 1000 nM.
Take `CCOc1nc(C(=O)O)c(Cl)cc1-c1cn([C@H]2CCOC2)c2ncc(-c3c(C)noc3C)cc12` [P-0406, (S)-3-chloro-5-(5-(3,5-dimethylisoxazol-4-yl)-1-(tetrahydrofuran-3-yl)-1H-pyrrolo[2,3-b]pyridin-3-yl)-6-ethoxypicolinic acid]: the IC50 lay within 0.1 to 1000 nM.
Then `Cc1noc(C)c1-c1cnc2c(c1)c(-c1ccc(C(=O)O)cc1OC(C)C)cn2C1(C)CCOC1` (centres unmarked) [P-0407, 4-(5-(3,5-dimethylisoxazol-4-yl)-1-(3-methyltetrahydrofuran-3-yl)-1H-pyrrolo[2,3-b]pyridin-3-yl)-3-isopropoxybenzoic acid], with 0.1 to 1000 nM; and `Cc1noc(C)c1-c1cnc2c(c1)c(-c1c(Cl)cc(C(=O)O)cc1OC(C)C)cn2C1(C)CCOC1` (centres unmarked) [P-0408, 3-chloro-4-(5-(3,5-dimethylisoxazol-4-yl)-1-(3-methyltetrahydrofuran-3-yl)-1H-pyrrolo[2,3-b]pyridin-3-yl)-5-isopropoxybenzoic acid], with 0.1 to 1000 nM; and `Cc1noc(C)c1-c1cnc2c(c1)c(-c1c(Cl)cc(C(=O)O)cc1OC1CC1)cn2-c1ncccc1C#N` [P-0409, 3-chloro-4-(1-(3-cyanopyridin-2-yl)-5-(3,5-dimethylisoxazol-4-yl)-1H-pyrrolo[2,3-b]pyridin-3-yl)-5-cyclopropoxybenzoic acid], with 0.1 to 1000 nM.
Regarding `Cc1noc(C)c1-c1cnc2c(c1)c(-c1c(F)cc(C(=O)O)cc1OC1CCC1)cn2C1CCOCC1` [P-0410, 3-cyclobutoxy-4-(5-(3,5-dimethylisoxazol-4-yl)-1-(tetrahydro-2H-pyran-4-yl)-1H-pyrrolo[2,3-b]pyridin-3-yl)-5-fluorobenzoic acid], the IC50 was in the range of 0.1 to 1000 nM.
For `CCOc1nc(C(=O)O)cc(C)c1-c1cn(C2CCOCC2)c2ncc(-c3c(C)noc3C)cc12` [P-0411, 5-(5-(3,5-dimethylisoxazol-4-yl)-1-(tetrahydro-2H-pyran-4-yl)-1H-pyrrolo[2,3-b]pyridin-3-yl)-6-ethoxy-4-methylpicolinic acid], the IC50 is 0.1 to 1000 nM.
The same measure for `CCOc1nc(C(=O)O)cc(C)c1-c1cn(-c2ccc(F)cc2F)c2ncc(-c3c(C)noc3C)cc12` [P-0412, 5-(1-(2,4-difluorophenyl)-5-(3,5-dimethylisoxazol-4-yl)-1H-pyrrolo[2,3-b]pyridin-3-yl)-6-ethoxy-4-methylpicolinic acid]: 0.1 to 1000 nM.
The same measure for `Cc1nnn(C)c1-c1cnc2c(c1)c(-c1ccc(C(=O)O)cc1OC1CC1)cn2C1CCOCC1` [P-0413, 3-cyclopropoxy-4-(5-(1,4-dimethyl-1H-1,2,3-triazol-5-yl)-1-(tetrahydro-2H-pyran-4-yl)-1H-pyrrolo[2,3-b]pyridin-3-yl)benzoic acid]: 0.1 to 1000 nM.
In the case of `CCOc1cc(C(=O)O)nc(OCC)c1-c1cn(-c2ccccc2F)c2ncc(-c3c(C)noc3C)cc12` [P-0414, 5-(5-(3,5-dimethylisoxazol-4-yl)-1-(2-fluorophenyl)-1H-pyrrolo[2,3-b]pyridin-3-yl)-4,6-diethoxypicolinic acid], the IC50 was in the range of 0.1 to 1000 nM.
`CCOc1cc(C(=O)O)nc(OCC)c1-c1cn([C@@H](C)c2ccccn2)c2ncc(-c3c(C)noc3C)cc12` [P-0415, (S)-5-(5-(3,5-dimethylisoxazol-4-yl)-1-(1-(pyridin-2-yl)ethyl)-1H-pyrrolo[2,3-b]pyridin-3-yl)-4,6-diethoxypicolinic acid]: the IC50 was in the range of 0.1 to 1000 nM.
The same measure for `CCOc1nc(C(=O)O)c(C)cc1-c1cn(C(C2CC2)C2CC2)c2ncc(-c3c(C)noc3C)cc12` [P-0416, 5-(1-(dicyclopropylmethyl)-5-(3,5-dimethylisoxazol-4-yl)-1H-pyrrolo[2,3-b]pyridin-3-yl)-6-ethoxy-3-methylpicolinic acid]: 0.1 to 1000 nM.
Then `CCOc1nc(C(=O)O)cc(C)c1-c1cn(C(C2CC2)C2CC2)c2ncc(-c3c(C)noc3C)cc12` [P-0417, 5-(1-(dicyclopropylmethyl)-5-(3,5-dimethylisoxazol-4-yl)-1H-pyrrolo[2,3-b]pyridin-3-yl)-6-ethoxy-4-methylpicolinic acid], with 0.1 to 1000 nM; and `Cc1noc(C)c1-c1cnc2c(c1)c(-c1ccnc(C(=O)O)c1C)cn2C(C1CC1)C1CC1` [P-0418, 4-(1-(dicyclopropylmethyl)-5-(3,5-dimethylisoxazol-4-yl)-1H-pyrrolo[2,3-b]pyridin-3-yl)-3-methylpicolinic acid], with 0.1 to 1000 nM.
The same measure for `Cc1noc(C)c1-c1cnc2c(c1)c(-c1ccnc(C(=O)O)c1C)cn2C1CCOCC1` [P-0419, 4-(5-(3,5-dimethylisoxazol-4-yl)-1-(tetrahydro-2H-pyran-4-yl)-1H-pyrrolo[2,3-b]pyridin-3-yl)-3-methylpicolinic acid]: 0.1 to 1000 nM; for `CCOc1cc(C(=O)O)nc(OCC)c1-c1cn(C(C2CC2)C2CC2)c2ncc(-c3c(C)noc3C)cc12` [P-0420, 5-(1-(dicyclopropylmethyl)-5-(3,5-dimethylisoxazol-4-yl)-1H-pyrrolo[2,3-b]pyridin-3-yl)-4,6-diethoxypicolinic acid]: 0.1 to 1000 nM; for `CCOc1cc(C(=O)O)nc(OCC)c1-c1cn(-c2ncccc2C#N)c2ncc(-c3c(C)noc3C)cc12` [P-0421, 5-(1-(3-cyanopyridin-2-yl)-5-(3,5-dimethylisoxazol-4-yl)-1H-pyrrolo[2,3-b]pyridin-3-yl)-4,6-diethoxypicolinic acid]: 0.1 to 1000 nM.
Turning to `CCOc1cc(C(=O)O)nc(OCC)c1-c1cn(-c2ncccc2C(N)=O)c2ncc(-c3c(C)noc3C)cc12` [P-0422, 5-(1-(3-carbamoylpyridin-2-yl)-5-(3,5-dimethylisoxazol-4-yl)-1H-pyrrolo[2,3-b]pyridin-3-yl)-4,6-diethoxypicolinic acid], the IC50 was 0.1 to 1000 nM.
The same measure for `CCOc1cc(C(=O)O)nc(OCC)c1-c1cn(-c2ccc(C#N)cc2F)c2ncc(-c3c(C)noc3C)cc12` [P-0423, 5-(1-(4-cyano-2-fluorophenyl)-5-(3,5-dimethylisoxazol-4-yl)-1H-pyrrolo[2,3-b]pyridin-3-yl)-4,6-diethoxypicolinic acid]: 0.1 to 1000 nM.
As for `CCOc1cc(C(=O)O)nc(OCC)c1-c1cn(-c2cnc(C3CC3)nc2)c2ncc(-c3c(C)noc3C)cc12` [P-0424, 5-(1-(2-cyclopropylpyrimidin-5-yl)-5-(3,5-dimethylisoxazol-4-yl)-1H-pyrrolo[2,3-b]pyridin-3-yl)-4,6-diethoxypicolinic acid], the IC50 is 0.1 to 1000 nM.
For the compound `CCOc1cc(C(=O)O)nc(OCC)c1-c1cn(C2CCC(F)(F)CC2)c2ncc(-c3c(C)noc3C)cc12` [P-0425, 5-(1-(4,4-difluorocyclohexyl)-5-(3,5-dimethylisoxazol-4-yl)-1H-pyrrolo[2,3-b]pyridin-3-yl)-4,6-diethoxypicolinic acid], the IC50 was 0.1 to 1000 nM.
The same measure for `CCOc1cc(C(=O)O)ncc1-c1cn(C(C2CC2)C2CC2)c2ncc(-c3c(C)noc3C)cc12` [P-0427, 5-(1-(dicyclopropylmethyl)-5-(3,5-dimethylisoxazol-4-yl)-1H-pyrrolo[2,3-b]pyridin-3-yl)-4-ethoxypicolinic acid]: 0.1 to 1000 nM; for `CCOc1cc(C(=O)O)ncc1-c1cn(C2CCOCC2)c2ncc(-c3c(C)noc3C)cc12` [P-0428, 5-(5-(3,5-dimethylisoxazol-4-yl)-1-(tetrahydro-2H-pyran-4-yl)-1H-pyrrolo[2,3-b]pyridin-3-yl)-4-ethoxypicolinic acid]: 0.1 to 1000 nM.
